These compounds were tested against T1, recombinant human GR (Homo sapiens, UniProt P04150) (assay: Human Glucocorticoid Receptor (GR) Assay, fluorescence polarization competition with GS Red tracer). Conditions: 2 hours at room temperature, 100% control 10 μM Dexamethasone, XLfit model 205, read-out: Inhibition of GR binding, IC50.
T1 construct: purchased Panvera/Invitrogen P2812 (kit P2893)
T1 sequence (P04150 1-777): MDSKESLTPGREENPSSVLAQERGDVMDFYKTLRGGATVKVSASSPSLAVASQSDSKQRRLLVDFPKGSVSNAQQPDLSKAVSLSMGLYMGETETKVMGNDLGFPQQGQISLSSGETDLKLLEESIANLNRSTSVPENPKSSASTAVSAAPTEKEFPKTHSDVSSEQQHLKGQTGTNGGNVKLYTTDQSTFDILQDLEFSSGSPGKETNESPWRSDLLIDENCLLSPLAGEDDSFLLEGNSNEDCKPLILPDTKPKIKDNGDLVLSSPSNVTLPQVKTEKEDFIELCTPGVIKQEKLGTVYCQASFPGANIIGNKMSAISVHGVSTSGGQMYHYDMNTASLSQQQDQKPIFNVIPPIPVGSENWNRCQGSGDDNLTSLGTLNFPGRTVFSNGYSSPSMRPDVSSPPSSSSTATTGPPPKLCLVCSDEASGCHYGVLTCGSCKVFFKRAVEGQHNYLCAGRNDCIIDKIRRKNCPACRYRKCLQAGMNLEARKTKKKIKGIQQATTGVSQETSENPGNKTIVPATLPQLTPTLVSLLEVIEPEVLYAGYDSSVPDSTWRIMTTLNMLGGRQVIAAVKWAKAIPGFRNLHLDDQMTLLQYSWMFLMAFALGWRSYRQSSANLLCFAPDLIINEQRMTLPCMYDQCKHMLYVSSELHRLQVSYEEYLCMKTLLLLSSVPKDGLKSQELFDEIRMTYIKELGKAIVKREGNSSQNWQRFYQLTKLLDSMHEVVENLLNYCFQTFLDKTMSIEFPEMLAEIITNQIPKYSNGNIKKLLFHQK
Procedure: Human Glucocorticoid Receptor (GR) Assay The assay is based on a commercial kit from Panvera/Invitrogen (Part number P2893). The assay technology is fluorescence polarization. The kit utilises recombinant human GR (Panvera, Part number P2812), a Fluoromone™ labelled tracer (GS Red, Panvera, Part number P2894) and a Stabilizing Peptide 10X (Panvera, Part number P2815). The GR and Stabilizing Peptide reagents are stored at −70° C. while the GS Red is stored at −20° C. Also included in the kit are 1M DTT (Panvera, Part number P2325, stored at −20° C.) and GR Screening buffer 10X (Panvera, Part number P2814, stored at −70° C. initially but once thawed stored at room temperature). Avoid repeated freeze/thaws for all reagents. The GR Screening buffer 10X comprises 100 mM potassium phosphate, 200 mM sodium molybdate, 1 mM EDTA and 20% DMSO. Test compounds (1 μL) and controls (1 μL) in 100% DMSO were added to black polystyrene 384-well plates (Greiner low volume black flat-bottom, part number 784076). 0% control was 100% DMSO and 100% control was 10 μM Dexamethasone. Background solution (8 μL; assay buffer 10X, Stabilizing Peptide, DTT and ice cold MQ water) was added to the background wells. GS Red solution (7 μL; assay buffer 10X, Stabilizing Peptide, DTT, GS Red and ice cold water) was added to all wells except background wells. GR solution (7 μL; assay buffer 10X, Stabilizing Peptide, DTT, GR and ice cold water) was added to all wells. The plate was sealed and incubated in a dark at room temperature for 2 hours. The plate was read in an Analyst plate reader (LJL Biosystems/Molecular Devices Corporation) or other similar plate reader capable of recording fluorescence polarization (excitation wavelength 530 nm, emission wavelength 590 nm and a dichroic mirror at 561 nm).

| Compound | IC50 [nM] |
| --- | --- |
| CCNC(=O)c1cccc(-n2ncc3c2C=C2CC[C@H]4[C@@H]5C[C@@H](C)[C@](OC(=O)COC)(C(=O)SCF)[C@@]5(C)C[C@H](O)[C@]4(F)[C@@]2(C)C3)c1 [Example 27, (1R,2R,3aS,3bS, 10aS,10bR,11S,12aS)-7-[3-(ethylcarbamoyl)phenyl]-10b-fluoro-1-{[(fluoro-methyl)sulfanyl]-carbonyl}-11-hydroxy-2,10a,12a-trimethyl-1,2,3,3a, 3b,4,5,7,10,10a,- 10b,11,12,12a-tetradecahydrocyclo-penta[5,6]naphtho [1,2-f]indazol-1-yl methoxyacetate] | 0.47 |
| CCC(=O)O[C@]1(C(=O)SCF)CC[C@H]2[C@@H]3CCC4=Cc5c(cnn5-c5cccc(C(=O)NCC(=O)NC)c5)C[C@]4(C)[C@@]3(F)[C@@H](O)C[C@@]21C [Example 36, (1R,3aS,3bS,10aS, 10bR,11S,12aS)-10b-fluoro-1-{[(fluoromethyl)sulfanyl]carbonyl}-11-hydroxy-10a,12a-dimethyl-7-(3-{[2-(methylamino)-2-oxoethyl]carbamoyl}phenyl)-1,2,3,3a,3b,4,5,7,10,10a, 10b,11,12,12a-tetradecahydrocyclo-penta[5,6]naphtho [1,2-f]indazol-1-yl propanoate] | 0.84 |
| CCC(=O)O[C@]1(C(=O)SCF)CC[C@H]2[C@@H]3CCC4=Cc5c(cnn5-c5cccc(C(=O)NCCOC)c5)C[C@]4(C)[C@H]3[C@@H](O)C[C@@]21C [Example 2, (1R,3aS,3bS,10aR,10bS,11S,12aS)-1-{[(Fluoromethyl)sulfanyl]carbonyl}-11-hydroxy-7-{3-[(2-methoxyethyl)carbamoyl]phenyl}-10a,12a-dimethyl-1,2,3,3a,3b,4,5,7,10,10a,10b,11,12,12a-tetradecahydrocyclopenta[5,6]naphtho[1,2-f]indazol-1-yl propanoate] | 0.81 |
| CSCCNC(=O)c1cccc(-n2ncc3c2C=C2CC[C@@H]4[C@H]([C@@H](O)C[C@@]5(C)[C@H]4CC[C@]5(OC(=O)C4CC4)C(=O)SCF)[C@@]2(C)C3)c1 [Example 10, (1R,3aS,3bS,10aR,10bS,11S,12aS)-1-{[(Fluoromethyl)sulfanyl]carbonyl}-11-hydroxy-10a,12a-dimethyl-7-(3-{[2-(methylsulfanyl)ethyl]carbamoyl}phenyl)-1,2,3,3a,3b,4,5,7,10,10a,10b,11,12,12a-tetradecahydrocyclopenta[5,6]naphtho[1,2-f]indazol-1-yl cyclopropanecarboxylate] | 1.5 |
| C[C@H]1C[C@@H]2[C@H]([C@@H](O)C[C@@]3(C)[C@H]2CC[C@]3(OC(=O)C2CC2)C(=O)SCF)[C@@]2(C)Cc3cnn(-c4cccc(C(=O)NCC(N)=O)c4)c3C=C12 [Example 31, (1R,3aS,3bS,5S, 10aR,10bS,11S,12aS)-7-{3-[(2-amino-2-oxoethyl)carbamoyl]phenyl}-1-{(fluoromethyl)sulfanyl] carbonyl}-11-hydroxy-5,10a,12a-trimethyl-1,2,3,3a,3b,4,5,7,10, 10a,10b,11,12,12a-tetradecahydrocyclo-penta[5,6]naphtho [1,2-f]indazol-1-yl cyclopropanecarboxylate] | 1.2 |
| CCC(=O)O[C@]1(C(=O)SCF)[C@H](C)C[C@H]2[C@@H]3CCC4=Cc5c(cnn5-c5cccc(C(=O)N[C@H](C)C(N)=O)c5)C[C@]4(C)[C@@]3(F)[C@@H](O)C[C@@]21C [Example 26, (1R,2R,3aS,3bS, 10aS,10bR,11S,12aS)-7-(3-{[(1R)-2-amino-1-methyl-2-oxoethyl]carbamoyl}phenyl)-10b-fluoro-1-{[(fluoromethyl)-sulfanyl]carbonyl}-11-hydroxy-2,10a,12a-trimethyl-1,2,3,3a,3b,4,5,7,10, 10a,10b,11,12,12a-tetradecahydrocyclo-penta[5,6]naphtho [1,2-f]indazol-1-yl propanoate] | 2 |

Continued, values first:

| IC50 [nM] | Compound |
| --- | --- |
| 7.1 | CCC(=O)O[C@]1(C(=O)SCF)CC[C@H]2[C@@H]3C[C@H](C)C4=Cc5c(cnn5-c5cccc(C(=O)NCC(N)=O)c5)C[C@]4(C)[C@H]3[C@@H](O)C[C@@]21C [Example 37, (1R,3aS,3bS,5S,10aR, 10bS,11S,12aS)-7-{3-[(2-amino-2-oxoethyl)carbamoyl]phenyl}-1-{[(fluoromethyl)sulfanyl]carbonyl}-11-hydroxy-5,10a, 12a-trimethyl-1,2,3,3a,3b,4,5,7,10, 10a,10b,11,12,12a-tetradecahydrocyclo-penta[5,6]naphtho [1,2-f]indazol-1-yl propanoate] |
| 6.3 | CCC(=O)O[C@]1(C(=O)SCCO)CC[C@H]2[C@@H]3CCC4=Cc5c(cnn5-c5cccc(C(=O)N6CCC[C@@H]6C(N)=O)c5)C[C@]4(C)[C@H]3[C@@H](O)C[C@@]21C [Example 48, (1R,3aS,3bS,10aR, 10bS,11S,12aS)-7-(3-{[(2R)-2-carbamoyl-pyrrolidin-1-yl]carbonyl}phenyl)-11-hydroxy-1-{[(2-hydroxyethyl)sulfanyl]carbonyl}-10a,12a-dimethyl-1,2,3,3a,3b,4,5,7,10, 10a,10b,11,12,12a-tetradecahydrocyclo-penta[5,6]naphtho [1,2-f]indazol-1-yl propanoate] |
| 8.2 | C[C@]12Cc3cnn(-c4cccc(C(=O)N5CCC[C@@H]5C(N)=O)c4)c3C=C1CC[C@@H]1[C@@H]2[C@@H](O)C[C@@]2(C)[C@H]1CC[C@]2(OC(=O)c1cocn1)C(=O)SCF [Example 50, (1R,3aS,3bS,10aR, 10bS,11S,12aS)-7-(3-{[(2R)-2-carbamoyl-pyrrolidin-1-yl]carbonyl}phenyl)-1-{[(fluoromethyl)sulfanyl]carbonyl}-11-hydroxy-10a,12a-dimethyl-1,2,3,3a,3b,4,5,7,10, 10a,10b,11,12,12a-tetradecahydrocyclo-penta[5,6]naphtho [1,2-f]indazol-1-yl 1,3-oxazole-4-carboxylate] |
| 3.3 | COCC(=O)O[C@]1(C(=O)SCF)[C@H](C)C[C@H]2[C@@H]3CCC4=Cc5c(cnn5-c5cccc(C(=O)NCc6cccnc6)c5)C[C@]4(C)[C@@]3(F)[C@@H](O)C[C@@]21C [Example 46, (1R,2R,3aS,3bS, 10aS,10bR,11S,12aS)-10b-fluoro-1-{[(fluoromethyl)sulfanyl]carbonyl}-11-hydroxy-2,10a,12a-trimethyl-7-{3-[(pyridin-3-ylmethyl)carbamoyl]phenyl}-1,2,3,3a,3b,4,5,7,10, 10a,10b,11,12,12a-tetradecahydrocyclo-penta[5,6]naphtho [1,2-f]indazol-1-yl methoxyacetate] |
| 12 | C[C@]12Cc3cnn(-c4cccc(C(=O)N5CCC[C@@H]5C(N)=O)c4)c3C=C1CC[C@@H]1[C@@H]2[C@@H](O)C[C@@]2(C)[C@H]1CC[C@]2(OC(=O)c1cocn1)C(=O)SCC#N [Example 49, (1R,3aS,3bS,10aR, 10bS,11S,12aS)-7-(3-{[(2R)-2-carbamoyl-pyrrolidin-1-yl]carbonyl}phenyl)-1-{[(cyanomethyl)sulfanyl]carbonyl}-11-hydroxy-10a,12a-dimethyl-1,2,3,3a,3b,4,5,7,10, 10a,10b,11,12,12a-tetradecahydrocyclo-penta[5,6]naphtho [1,2-f]indazol-1-yl 1,3-oxazole-4-carboxylate] |
| 3.3 | CCC(=O)O[C@]1(C(=O)SC)CC[C@H]2[C@@H]3CCC4=Cc5c(cnn5-c5cccc(C(=O)N6CCC[C@@H]6C(N)=O)c5)C[C@]4(C)[C@@]3(F)[C@@H](O)C[C@@]21C [Example 59, (1R,3aS,3bS,10aS, 10bR,11S,12aS)-7-(3-{[(2R)-2-carbamoyl-pyrrolidin-1-yl]carbonyl}phenyl)-10b-fluoro-11-hydroxy-10a,12a-dimethyl-1-[(methylsulfanyl)carbonyl]-1,2,3,3a,3b,4,5,7,10, 10a,10b,11,12,12a-tetradecahydrocyclo-penta[5,6]naphtho [1,2-f]indazol-1-yl propanoate] |
